Assays:
[1] = system: CCRF-CEM (acute T cell lymphoblastic leukemia); experiment: Clonogenic assay with 1.15.1-AE (methylcellulose); type: cell-based
Description: (§1) Lymphoma or leukemia cell lines were mixed with methylcellulose base media (R&D Systems, USA) and in various concentrations of unconjugated and Auristatin E-conjugated 1.15.1 antibody before plating onto 6-well tissue culture plates (Becton Dickinson, Franklin Lakes, N.J., USA). […] Plates were incubated at 37° C. and examined daily. On days 14-18, colonies on the plates were counted.

[2] = system: Jurkat (acute T-cell leukemia); experiment: Clonogenic assay with 1.15.1-AE (methylcellulose); type: cell-based
Description: as §1

[3] = system: THP-1 (acute monocytic leukemia); experiment: Clonogenic assay with 1.15.1-AE (methylcellulose); type: cell-based
Description: as §1

[4] = system: SK-MEL-5 melanoma xenografts; experiment: Human SK-MEL-5 melanoma xenograft in athymic mice; type: in vivo
Description: Test Animals: Five- to 6-week old athymic mice (CD-1 nu/nu females), used for human tumor xenografts, were obtained from Harlan Laboratories (Indianapolis, Ind.). Animals were housed in specific pathogen-free conditions, according to the guidelines of the Association for Assessment and Accreditation of Laboratory Animal Care International (AAALAC International). Test animals were provided pelleted food and water ad libitum and kept in a room with conditioned ventilation (HVAC), temperature (22°±2° C.), relative humidity (55%±15%), and photoperiod (12 hr). All studies were carried out with approved institutional animal care and use protocols.
Human Melanoma Xenograft Models. The tumor inhibitory activity of the CR011-MMAE immunoconjugate was measured in an anti-tumor xenograft model using athymic mice, according to published methods (see Geran et al., Cancer Chemother. Rep. 3:1-104 (1972)). […] When tumors became established (10-20 days), the animals were pair-matched into groups (n=6 mice/group), and treatment was administered by intravenous injection (tail vein).
The SK-MEL-2 human melanoma (ATCC #HTB-68) was derived from a metastatic site (skin of thigh) of a person with malignant melanoma, and the SK-MEL-5 human melanoma (ATCC #HTB-70) was derived from a metastatic site (axillary lymph node) of a person with malignant melanoma (see Fogh et al., J. Natl. Cancer Inst. 59: 221-226 (1977)). Both cell lines were obtained from the American Type Culture Collection.
The effects of treatment were monitored by repetitive tumor measurements across 2 diameters with Vernier calipers; tumor size (in mg) was calculated using a standard formula, (W^2×L)/2, assuming a specific gravity of 1.0. Tumor size and body weights were assessed twice weekly. Mice were examined daily, however, and moribund animals were humanely euthanized if clinical indications of excessive pain or distress were noted (i.e., prostration, hunched posture, paralysis/paresis, distended abdomen, ulcerations, abscesses, seizures, and/or hemorrhages). Animals with tumors exceeding 2,000 mg were removed from the study and euthanized humanely.
Soon after the commencement of treatment with paclitaxel, however, significant tumor growth inhibition was observed (P≦0.039) at day 3 after treatment began, and this anti-tumor effect continued, producing 100% growth inhibition (stasis). The responses of SK-MEL-5-bearing test animals to vinblastine and paclitaxel were short-lived. After cessation of treatment at the maximally tolerated doses, tumors resumed rapid, progressive growth.

SK-Mel-2 cells [5] = experiment: Clonogenic assay after GPNMB siRNA transfection; type: cell-based, human
Description: SK-MeI-2 cells are transfected with 50 nM of control siRNA or siRNA targeting GPNMB. A. Cell lysates are prepared from the transfected SK-Mel-2 cells 2 and 4 days post-transfection and the expression of GPNMB (upper panel) or actin (lower panel) is determined by immunoblotting. Lane 1: Mock (oligofectamine) transfection. Lane 2: Control siRNA transfection. Lane 3: GPNMB siRNA transfection. B. Flow cytometry analysis of GPNMB expression 2 and 4 days after transfection. SK-Mel-2 cells are transfected with mock, control siRNA or GPNMB siRNA as indicted in the Materials and Methods. C. […] The surviving fraction is normalized to the untreated control and expressed as a percentage of control using GraphPad Prism graphing software. Each treatment is performed in triplicate. A representative experiment from two independent studies is shown.
(§2) Cells were plated in 96-well plates and allowed to recover overnight. […] The cells were then transferred into 6-well plates and allowed to form colonies. Colonies were stained with Giemsa stain (Sigma) and counted. The surviving cell fractions were calculated based upon the ratio of the treated sample and the untreated control. The results were expressed as a percentage of control using GraphPad Prism Version 4 software.
The amount of GPNMB expression was reduced for at least 7 days after transfection.

SK-Mel-2 cells [6] = experiment: Cell cycle analysis (BrdU / propidium iodide flow cytometry); type: cell-based, human; details: for % G1 / % G2/M / % S-phase / % Sub-G1: SK-Mel-2, 24 hour
Description: (§3) Briefly, cells were pulsed at the indicated times with 30 μM of bromodeoxyuridine (BrdU, Sigma) for 30 min, harvested, fixed and permeabilized in methanol. Nascent DNA synthesis was detected by anti-bromodeoxyuridine-FITC (BD Biosciences, San Jose, Calif.) staining. Total DNA content was detected using propidium iodide (PI, Sigma). For apoptosis analysis, cells were treated as above and labeled with Annexin V-FITC followed by propidium iodide exclusion using the Annexin V-FITC Apoptosis Detection kit I (BD PharMingen, San Diego, Calif.) according to the manufacturer's protocols. Flow cytometry (as described in the previous Example) was used to assay both cell cycle and apoptosis studies.
(§4) DNA synthesis and cell cycle progression were determined by flow cytometry (Table 52).

TK-10 cells = experiment: as above; type: cell-based, human; details: for % G1 / % G2/M / % S-phase / % Sub-G1: TK-10, 24 hour
Description: as §3, §4

SF-539 = experiment: Clonogenic assay, CR011-vcMMAE in vitro growth inhibition; type: cell-based, human
Description: as §2

SNB-78 = experiment: as above; type: cell-based, human
Description: as §2

U-118-MG = experiment: as above; type: cell-based, human
Description: as §2

XF-498 = experiment: as above; type: cell-based, human
Description: as §2

CR011-vcMMAE: anti-GPNMB antibody 1.15.1 coupled to monomethylauristatin E via protease-sensitive valine-citrulline linker
Clonogenic Assay with 1.15.1-AE IC50 [1]: No growth | Clonogenic Assay with 1.15.1-AE IC50 [2]: No effect | Clonogenic Assay with 1.15.1-AE IC50 [3]: 0.207 µg/mL | IC50 [3]: 1.4 nM | complete regressions ([4]; 2.5 mg/kg/treatment): Complete regressions occurred | time after treatment began to significant anti-tumor effects ([4]; 10 mg/kg/treatment, compared to PBS-treated controls): 10 days | time after treatments began to significant anti-tumor effects ([4]; 10 mg/kg/treatment, compared to saline): 7 days | anti-tumor effect ([4]; CR011-ONC-3, i.v., vs saline and PBS control groups): Substantial tumor growth inhibition, as well as tumor growth delay and complete regressions | doses at which complete regressions occurred ([4]; i.v., q4d x4): > 2.5 mg/kg | toxicity (mortality, body weight or weight gain) ([4]; treated tumor-bearing animals): no indication of toxicity | sensitivity to growth-inhibitory activity following siRNA-mediated GPNMB knockdown (SK-Mel-2 cells [5]): less sensitive | decreased percentage of cells in G1 and S-phase compared to untreated cells (SK-Mel-2 cells [6]; 1000 ng/mL, 24 hrs): 10% | increased percentage of cells in G2/M compared to untreated cells (SK-Mel-2 cells [6]; 1000 ng/mL, 24 hrs): 18.6% | increased percentage of cells in G2/M (SK-Mel-2 cells [6]; 1000 ng/mL, 48 hr): 24% | reduced percentage of cells in G1 and S-phase (SK-Mel-2 cells [6]; 1000 ng/mL, 48 hr): 11% | % G1 (SK-Mel-2 cells [6]; 100 ng/mL): 56.0% | % G2/M (SK-Mel-2 cells [6]; 100 ng/mL): 12.4% | % S-phase (SK-Mel-2 cells [6]; 100 ng/mL): 26.9% | % Sub-G1 (SK-Mel-2 cells [6]; 100 ng/mL): 0.2% | % G1 (SK-Mel-2 cells [6]; 1000 ng/mL): 43.7% | % G2/M (SK-Mel-2 cells [6]; 1000 ng/mL): 28.5% | % S-phase (SK-Mel-2 cells [6]; 1000 ng/mL): 20.0% | % Sub-G1 (SK-Mel-2 cells [6]; 1000 ng/mL): 1.1% | cycling of GPNMB-negative cells (TK-10 cells; 1000 ng/mL): did not affect the cycling | % G1 (TK-10 cells; 100 ng/mL): 51.1% | % G2/M (TK-10 cells; 100 ng/mL): 4.5% | % S-phase (TK-10 cells; 100 ng/mL): 35.1% | % Sub-G1 (TK-10 cells; 100 ng/mL): 0.7% | % G1 (TK-10 cells; 1000 ng/mL): 52.6% | % G2/M (TK-10 cells; 1000 ng/mL): 3.9% | % S-phase (TK-10 cells; 1000 ng/mL): 34.2% | % Sub-G1 (TK-10 cells; 1000 ng/mL): 0.8% | IC50 (SF-539): ~1.05 µg/mL | IC50 (SNB-78): ~0.45 µg/mL | IC50 (U-118-MG): ~1.25 µg/mL | IC50 (XF-498): approximately 215 ng/mL

From patent publication US8846873B2, “Antibodies directed to GPNMB and uses thereof” (Celldex Therapeutics, Inc., priority 2004, dated 2014)
